≈ marks a conversion by molar mass, not a printed value.
Columns and labels:
Assay type in all cases: functional
[1] = tested on: Enterococcus; experiment: Antibacterial activity against vancomycin-resistant Enterococcus 5 after 18 to 20 hrs by agar dilution method
[2] = tested on: Enterococcus; experiment: Antibacterial activity against vancomycin-resistant Enterococcus 2 after 18 to 20 hrs by agar dilution method
[3] = tested on: Streptococcus agalactiae; experiment: Antibacterial activity against Streptococcus agalactiae ATCC 2901 after 18 to 20 hrs by agar dilution method
[4] = tested on: Enterococcus faecium; experiment: Antibacterial activity against vancomycin-resistant Enterococcus faecium 1 after 18 to 20 hrs by agar dilution method
[5] = tested on: Haemophilus influenzae; experiment: Antibacterial activity against Haemophilus influenzae after 18 to 20 hrs by agar dilution method
[6] = tested on: Enterococcus; experiment: Antibacterial activity against vancomycin-resistant Enterococcus 6 after 18 to 20 hrs by agar dilution method
[7] = tested on: Enterococcus; experiment: Antibacterial activity against vancomycin-resistant Enterococcus 4 after 18 to 20 hrs by agar dilution method
[8] = tested on: Enterococcus; experiment: Antibacterial activity against vancomycin-resistant Enterococcus 3 after 18 to 20 hrs by agar dilution method
[9] = tested on: Enterococcus faecalis; experiment: Antibacterial activity against Enterococcus faecalis C474 after 18 to 20 hrs by agar dilution method
[10] = tested on: Streptococcus pyogenes; experiment: Antibacterial activity against Streptococcus pyogenes ATCC 8736 after 18 to 20 hrs by agar dilution method
[11] = tested on: Staphylococcus aureus; experiment: Antibacterial activity against Staphylococcus aureus C463 after 18 to 20 hrs by agar dilution method
[12] = tested on: Enterococcus; experiment: Antibacterial activity against vancomycin-resistant Enterococcus 1 after 18 to 20 hrs by agar dilution method
[13] = tested on: Enterococcus faecium; experiment: Antibacterial activity against vancomycin-resistant Enterococcus faecium 2 after 18 to 20 hrs by agar dilution method
[14] = tested on: Staphylococcus; experiment: Antibacterial activity against coagulase negative Staphylococcus after 18 to 20 hrs by agar dilution method
[15] = tested on: Streptococcus pneumoniae; experiment: Antibacterial activity against Streptococcus pneumoniae C402 after 18 to 20 hrs by agar dilution method
[16] = tested on: Staphylococcus aureus; experiment: Antibacterial activity against methicillin-resistant Staphylococcus aureus 1 after 18 to 20 hrs by agar dilution method
[17] = tested on: Enterococcus faecium; experiment: Antibacterial activity against Enterococcus faecium C803 after 18 to 20 hrs by agar dilution method

SMILES | MIC [1] | MIC [2] | MIC [3] | MIC [4] | MIC [5] | MIC [6] | MIC [7] | MIC [8] | MIC [9] | MIC [10] | MIC [11] | MIC [12] | MIC [13] | MIC [14] | MIC [15] | MIC [16] | MIC [17]
CC(=O)NC[C@H]1CN(c2ccc(N3CCCNS3(=O)=O)c(F)c2)C(=O)O1 | 3.12 µg/mL (≈ 8.07 µM) | 1.56 µg/mL (≈ 4.04 µM) | 1.56 µg/mL (≈ 4.04 µM) | 3.12 µg/mL (≈ 8.07 µM) | 1.56 µg/mL (≈ 4.04 µM) | 3.12 µg/mL (≈ 8.07 µM) | 3.12 µg/mL (≈ 8.07 µM) | 0.78 µg/mL (≈ 2.02 µM) | 1.56 µg/mL (≈ 4.04 µM) | 1.56 µg/mL (≈ 4.04 µM) | 3.12 µg/mL (≈ 8.07 µM) | 3.12 µg/mL (≈ 8.07 µM) | 1.56 µg/mL (≈ 4.04 µM) | 1.56 µg/mL (≈ 4.04 µM) | 0.78 µg/mL (≈ 2.02 µM) | 1.56 µg/mL (≈ 4.04 µM) | 1.56 µg/mL (≈ 4.04 µM)
CC(=O)NC[C@H]1CN(c2ccc(N3CCN(C)S3(=O)=O)c(F)c2)C(=O)O1 | 3.12 µg/mL (≈ 8.07 µM) | 6.25 µg/mL (≈ 16.2 µM) | 1.56 µg/mL (≈ 4.04 µM) | 3.12 µg/mL (≈ 8.07 µM) | 3.12 µg/mL (≈ 8.07 µM) | 3.12 µg/mL (≈ 8.07 µM) | 3.12 µg/mL (≈ 8.07 µM) | 3.12 µg/mL (≈ 8.07 µM) | 3.12 µg/mL (≈ 8.07 µM) | 1.56 µg/mL (≈ 4.04 µM) | 3.12 µg/mL (≈ 8.07 µM) | 6.25 µg/mL (≈ 16.2 µM) | 3.12 µg/mL (≈ 8.07 µM) | 6.25 µg/mL (≈ 16.2 µM) | 0.78 µg/mL (≈ 2.02 µM) | 3.12 µg/mL (≈ 8.07 µM) | 3.12 µg/mL (≈ 8.07 µM)
CC(=O)NC[C@H]1CN(c2ccc(N3CC(C)NS3(=O)=O)c(F)c2)C(=O)O1 (some centres not stated) | 12.5 µg/mL (≈ 32.3 µM) | 12.5 µg/mL (≈ 32.3 µM) | 3.12 µg/mL (≈ 8.07 µM) | 6.25 µg/mL (≈ 16.2 µM) | 6.25 µg/mL (≈ 16.2 µM) | 12.5 µg/mL (≈ 32.3 µM) | 6.25 µg/mL (≈ 16.2 µM) | 6.25 µg/mL (≈ 16.2 µM) | 6.25 µg/mL (≈ 16.2 µM) | 1.56 µg/mL (≈ 4.04 µM) | 12.5 µg/mL (≈ 32.3 µM) | 6.25 µg/mL (≈ 16.2 µM) | 6.25 µg/mL (≈ 16.2 µM) | 12.5 µg/mL (≈ 32.3 µM) | 3.12 µg/mL (≈ 8.07 µM) | 12.5 µg/mL (≈ 32.3 µM) | 3.12 µg/mL (≈ 8.07 µM)
CC(=O)NC[C@H]1CN(c2ccc(N3CCCN(C)S3(=O)=O)c(F)c2)C(=O)O1 | 1.56 µg/mL (≈ 3.9 µM) | 1.56 µg/mL (≈ 3.9 µM) | 1.56 µg/mL (≈ 3.9 µM) | 0.78 µg/mL (≈ 1.95 µM) | 1.56 µg/mL (≈ 3.9 µM) | 1.56 µg/mL (≈ 3.9 µM) | 1.56 µg/mL (≈ 3.9 µM) | 1.56 µg/mL (≈ 3.9 µM) | 1.56 µg/mL (≈ 3.9 µM) | 0.78 µg/mL (≈ 1.95 µM) | 1.56 µg/mL (≈ 3.9 µM) | 1.56 µg/mL (≈ 3.9 µM) | 1.56 µg/mL (≈ 3.9 µM) | 1.56 µg/mL (≈ 3.9 µM) | 0.78 µg/mL (≈ 1.95 µM) | 1.56 µg/mL (≈ 3.9 µM) | 1.56 µg/mL (≈ 3.9 µM)
CC(=O)NC[C@H]1CN(c2ccc(N3CC(C)(C)NS3(=O)=O)c(F)c2)C(=O)O1 | 12.5 µg/mL (≈ 31.2 µM) | 12.5 µg/mL (≈ 31.2 µM) | 12.5 µg/mL (≈ 31.2 µM) | 12.5 µg/mL (≈ 31.2 µM) | 25 µg/mL (≈ 62.4 µM) | 12.5 µg/mL (≈ 31.2 µM) | 12.5 µg/mL (≈ 31.2 µM) | 6.25 µg/mL (≈ 15.6 µM) | 12.5 µg/mL (≈ 31.2 µM) | 6.25 µg/mL (≈ 15.6 µM) | 12.5 µg/mL (≈ 31.2 µM) | 25 µg/mL (≈ 62.4 µM) | 12.5 µg/mL (≈ 31.2 µM) | 12.5 µg/mL (≈ 31.2 µM) | 12.5 µg/mL (≈ 31.2 µM) | 12.5 µg/mL (≈ 31.2 µM) | 25 µg/mL (≈ 62.4 µM)
CC(=O)NC[C@H]1CN(c2ccc(N3CCN(Cc4ccccc4)S3(=O)=O)c(F)c2)C(=O)O1 | 6.25 µg/mL (≈ 13.5 µM) | 6.25 µg/mL (≈ 13.5 µM) | 6.25 µg/mL (≈ 13.5 µM) | 6.25 µg/mL (≈ 13.5 µM) | 3.12 µg/mL (≈ 6.75 µM) | 6.25 µg/mL (≈ 13.5 µM) | 6.25 µg/mL (≈ 13.5 µM) | 1.56 µg/mL (≈ 3.37 µM) | 6.25 µg/mL (≈ 13.5 µM) | 6.25 µg/mL (≈ 13.5 µM) | 6.25 µg/mL (≈ 13.5 µM) | 6.25 µg/mL (≈ 13.5 µM) | 1.56 µg/mL (≈ 3.37 µM) | 6.25 µg/mL (≈ 13.5 µM) | 6.25 µg/mL (≈ 13.5 µM) | 6.25 µg/mL (≈ 13.5 µM) | 6.25 µg/mL (≈ 13.5 µM)
CC(=O)NC[C@H]1CN(c2ccc(N3CCOS3(=O)=O)c(F)c2)C(=O)O1 | 1.56 µg/mL (≈ 4.18 µM) | 1.56 µg/mL (≈ 4.18 µM) | 0.39 µg/mL (≈ 1.04 µM) | 1.56 µg/mL (≈ 4.18 µM) | 3.12 µg/mL (≈ 8.36 µM) | 3.12 µg/mL (≈ 8.36 µM) | 3.12 µg/mL (≈ 8.36 µM) | 3.12 µg/mL (≈ 8.36 µM) | 1.56 µg/mL (≈ 4.18 µM) | 0.78 µg/mL (≈ 2.09 µM) | 3.12 µg/mL (≈ 8.36 µM) | 1.56 µg/mL (≈ 4.18 µM) | 1.56 µg/mL (≈ 4.18 µM) | 3.12 µg/mL (≈ 8.36 µM) | 1.56 µg/mL (≈ 4.18 µM) | 3.12 µg/mL (≈ 8.36 µM) | 1.56 µg/mL (≈ 4.18 µM)
CC(=O)NC[C@H]1CN(c2ccc(N3CCN(C(=O)OC(C)(C)C)S3(=O)=O)c(F)c2)C(=O)O1 | 12.5 µg/mL (≈ 26.5 µM) | 25 µg/mL (≈ 52.9 µM) | 6.25 µg/mL (≈ 13.2 µM) | 12.5 µg/mL (≈ 26.5 µM) | 6.25 µg/mL (≈ 13.2 µM) | 12.5 µg/mL (≈ 26.5 µM) | 6.25 µg/mL (≈ 13.2 µM) | 6.25 µg/mL (≈ 13.2 µM) | 12.5 µg/mL (≈ 26.5 µM) | 6.25 µg/mL (≈ 13.2 µM) | 12.5 µg/mL (≈ 26.5 µM) | 25 µg/mL (≈ 52.9 µM) | 12.5 µg/mL (≈ 26.5 µM) | 12.5 µg/mL (≈ 26.5 µM) | 25 µg/mL (≈ 52.9 µM) | 12.5 µg/mL (≈ 26.5 µM) | 25 µg/mL (≈ 52.9 µM)
CC(=O)NC[C@H]1CN(c2ccc(N3CCNS3(=O)=O)c(F)c2)C(=O)O1 | 0.39 µg/mL (≈ 1.05 µM) | 0.39 µg/mL (≈ 1.05 µM) | 0.2 µg/mL (≈ 0.537 µM) | 0.2 µg/mL (≈ 0.537 µM) | 0.2 µg/mL (≈ 0.537 µM) | 0.78 µg/mL (≈ 2.09 µM) | 0.78 µg/mL (≈ 2.09 µM) | 0.78 µg/mL (≈ 2.09 µM) | 0.2 µg/mL (≈ 0.537 µM) | 0.2 µg/mL (≈ 0.537 µM) | 0.39 µg/mL (≈ 1.05 µM) | 0.78 µg/mL (≈ 2.09 µM) | 0.2 µg/mL (≈ 0.537 µM) | 0.2 µg/mL (≈ 0.537 µM) | 0.2 µg/mL (≈ 0.537 µM) | 0.2 µg/mL (≈ 0.537 µM) | 0.39 µg/mL (≈ 1.05 µM)
CCN1CCN(c2ccc(N3C[C@H](CNC(C)=O)OC3=O)cc2F)S1(=O)=O | 6.25 µg/mL (≈ 15.6 µM) | 6.25 µg/mL (≈ 15.6 µM) | 3.12 µg/mL (≈ 7.79 µM) | 6.25 µg/mL (≈ 15.6 µM) | 3.12 µg/mL (≈ 7.79 µM) | 3.12 µg/mL (≈ 7.79 µM) | 3.12 µg/mL (≈ 7.79 µM) | 3.12 µg/mL (≈ 7.79 µM) | 3.12 µg/mL (≈ 7.79 µM) | 0.78 µg/mL (≈ 1.95 µM) | 6.25 µg/mL (≈ 15.6 µM) | 3.12 µg/mL (≈ 7.79 µM) | 3.12 µg/mL (≈ 7.79 µM) | 6.25 µg/mL (≈ 15.6 µM) | 0.78 µg/mL (≈ 1.95 µM) | 6.25 µg/mL (≈ 15.6 µM) | 1.56 µg/mL (≈ 3.9 µM)
CC(=O)NC[C@H]1CN(c2ccc(N3CCOCC3)c(F)c2)C(=O)O1 [LINEZOLID] | 1.56 µg/mL (≈ 4.62 µM) | 1.56 µg/mL (≈ 4.62 µM) | 1.56 µg/mL (≈ 4.62 µM) | 1.56 µg/mL (≈ 4.62 µM) | 1.56 µg/mL (≈ 4.62 µM) | 1.56 µg/mL (≈ 4.62 µM) | 1.56 µg/mL (≈ 4.62 µM) | 1.56 µg/mL (≈ 4.62 µM) | 1.56 µg/mL (≈ 4.62 µM) | 0.39 µg/mL (≈ 1.16 µM) | 1.56 µg/mL (≈ 4.62 µM) | 0.78 µg/mL (≈ 2.31 µM) | 0.78 µg/mL (≈ 2.31 µM) | 1.56 µg/mL (≈ 4.62 µM) | 0.39 µg/mL (≈ 1.16 µM) | 3.12 µg/mL (≈ 9.25 µM) | 1.56 µg/mL (≈ 4.62 µM)

From ChEMBL document CHEMBL1139392, “Synthesis and antibacterial activities of novel oxazolidinones having cyclic sulfonamide moieties” (2008)
